Measured values published in patent US7863304B2, “Analogs of glycyl-prolyl-glutamate” (priority 2001, dated 2011).
Where a SMILES comes first, the peptide text is derived from it. [ ]: non-standard residue; d: D form. ξ: configuration not given here. Hyp = O=C(O)[C@@H]1C[C@@H](O)CN1; Nva = CCC[C@H](N)C(=O)O; ξPip = O=C(O)C1CCCCN1; Aib = CC(C)(N)C(=O)O

Key:
cortical cell culture = assay: Rat cortical dissociated cell culture, okadaic acid injury, MTT viability; conditions: 100 nM okadaic acid
Protocol: (§1) Embryonic E18/19 wistar rats were used for the generation of dissociated cortical cell cultures. The rear portion (occipital cortex-area 17/18 of the visual cortex) of the cortical plate is used for the generation of the cultures. Cells were grown for 3-10 DIV in one part of serum-free medium and one part of rat cortex-derived cultivated astrocytic-conditioned medium (ACM).
(§2) 96-well tissue culture plates were coated with 0.2 mg/ml poly-L-lysine followed by 2 μg/ml laminin. Subsequently 60 μl of ACM were added per well and plate was stored at 37° C. until plating of cortical cells.
(§3) Whole cortices of P1/2 wistar pups were collected into separate tubes containing 4 ml DMEM-1 cortex per tube. The tissues were triturated a few times with a 5 ml sterile pipette to break up them up into smaller pieces. Each tube was poured separately into a reagent reservoir and triturated once with a 5 ml syringe and 18 gauge drawing needle. The mixture was then filtered through a 100 μm cell strainer into a 50 ml centrifuge tube. The strainer was washed with 5 ml DMEM. The cell solution was extended with DMEM to 50 ml of volume. The solution was then centrifuged for 5mins at 350g at RT. The cells were resuspended in 40 ml of DMEM+10% FBS. The cells were then reconstituted into a 75 cm^2 cell flask and incubated at 37° C./10% CO2/100% humidity in […]. […] The medium was replaced after 1 day with fresh DMEM+10% FBS. The cell growth was monitored and media+FBS replaced twice weekly until the cells were confluent (˜10-14 days). Once the confluency reached, the cells were washed once with 20 ml sterile PBS. Cells were incubated for 3 days in 30 ml Neurobasal medium+B27 supplement to maintain cells under serum-free conditions. Cell supernatant was then filter through a 0.22 μm sterile filter and frozen in aliquots at −80° C.
(§4) The tissues were stored in PBS+glucose solution on ice until all dissection was completed. Tissue material was centrifuged at 350g for 5 mins at RT. The supernatant was removed and cell pellets were incubated in 5 ml trypsin/EDTA solution (Invitrogen) for 8 mins at 37° C. Proteolysis was stopped by addition of one part of DMEM+10% FBS. Subsequently, the tissued were centrifuged at 350g for 5 mins at RT. The pellet was collected, washed (centrifugation) twice in NB/B27 medium (Invitrogen) and resuspended in 1 ml NB/B27 medium. Tissue was transferred into a petri dish and triturated twice with a glass pasteur pipette attached to a pipette to break up large pieces of tissue. The tissue was then triturated twice using a 1 ml syringe and 22 gauge needle and passed through a 100 μm cell strainer to remove remaining large tissue pieces. The cells were washed with 1 ml NB/B27. The number of viable neurons was counted and the percentage of cell viability determined. […] The cortical cells were incubated at 37° C./10% CO2/100% humidity.
(§5) In order to induce neuronal injury the phosphatase 1/2A antagonist okadaic acid is added for 24 hrs. Simultaneously, an analog of GPE of this invention was administered. After 24 hrs metabolic activity was measured by addition of MTT for 2-4 hrs followed by addition of SDS-solution and photometric end point measurement at 595 nm.
(§6) Student's unpaired t-test is used for testing for statistical significance when comparing uninjured controls with the injured neuronal rescue agent containing conditions.

striatal cells = assay: Striatal cell culture, 30 nM okadaic acid injury, MTT viability; format: cell-based, Wistar rats; conditions: for neuroprotection against okadaic acid induced loss of cell viability: okadaic acid (30 nM), 24 h, MTT, striatal cell culture (FIGS. 3, 4, 6)
Source text: (§7) Two pregnant Wistar rats (gestational day 18) underwent Caesarean section according to approved procedures from the Animal Ethics Committee of the University of Auckland. The Wistar dams were anaesthetised in a CO2-enriched atmosphere and sacrificed by subsequent spinal cord dislocation. The embryos were removed from their embryonic sacs and decapitated. After incisions into the skull with fine scissors, the embryonic brain was removed with a fine spatula. Striatal tissue was separated from neocortical tissue under the microscope and placed into serum-free DMEM/F-12 medium supplemented with penicillin/streptomycin (100 u/mL). Tissue underwent 15 trituration steps using a P1000 pipettor to obtain dissociated cells, which were centrifuged for 5 min at 250 G (4° C.) and the supernatant was discarded. Cells were re-suspended into 1 mL DMEM/F-12 medium and were kept on ice. Cell suspension (400,000 cells/cm2) was applied to 0.1 mg/mL poly-L-lysine pre-coated 96-well plates (3 h at 37° C.) and the volume was increased up to 100 μL with DMEM/F-12+5% FBS. Cells were cultivated at 37° C. in 100% humidity in a 5% CO2 atmosphere. After 24 h the medium was changed to serum-free Neurobasal/B27. Cell medium was changed every 3 days and maintained until 8 days in vitro (DWV).
(§8) Striatal cells were injured after 2, 3, 7 or 8 days in vitro. The injury paradigm involved 30 nM okadaic acid treatment with simultaneous administration of a GPE analog of this invention for 24 h. 1 μL of 3 μM okadaic acid stock solution together with 1 μL of GPE analog dissolved in PBS (vehicle received 2 μL of PBS) were incubated for 24 h with the striatal cells. Subsequently, 20 μL MTT (5 mg/mL in PBS) was added for 4 h. The reaction was terminated by addition of 100 μL 4% sodium dodecyl sulfate (SDS) solution. After 16-24 h incubation time, photometric extinction values are read at 595 nm. The difference between the vehicle and the okadaic acid injury condition was calculated. This value was set as the theoretical 100% recovery value. Measured values for the tested compounds were expressed in percentage of the 100% value. The unpaired Student's t-test was used for statistical analysis.

cerebellar cells = assay: Cerebellar microexplant culture, 3-NP/glutamate injury, count of cells with neurites; format: cell-based, Wistar rats; conditions: toxin alone, cerebellar cell culture (FIG. 7)
Protocol: Postnatal day 3, 4 or 8 Wistar rats were used for the study. The rats were sacrificed and placed in ice for 1 minute, decapitated and the cerebellum removed and placed on ice. Cerebellum tissue was placed in 1 ml of 0.65% glucose-supplemented PBS (10 μl 65% stock D (+)glucose/1 ml PBS) in a large Petri dish, chopped up into smaller sections and triturated with a 1 ml insulin syringe via a 23 gauge (0.4 mm) needle, and then squirted back into the glucose solution in the Petri dish. The tissue was sieved through (125 µm pore size) and centrifuged (2 minutes at 60×g) twice to exchange the medium into serum-free BSA-supplemented START V medium (Biochrom, Germany). […]
After explants were exposed to a GPE analog of this invention for the study period, cells were then rinsed in PBS and then fixed in increasing concentrations of paraformaldehyde (500 μl of 0.4% PFA was applied; then 1.2% PFA; then 3% PFA and finally 4% PFA (each fixation step: 2-3 minutes). Finally, the microexplants were rinsed in PBS. Neurons in the explants were then evaluated for morphology (presence of neurites) and counted as live cells per microscopic field. Four fields displaying highest cell density were counted per cover slip and the data presented as mean ±standard error of the mean (SEM); n=4 each. Statistical significance was evaluated by using the non-paired Student's t-test.

[1] = Striatal cell culture, 30 nM okadaic acid injury, MTT viability; format: cell-based, Wistar rats; conditions: Wistar, rat; okadaic acid alone, other studies FIGS. 2-6 (striatal and cortical cultures); read-out: decrease in numbers of viable cells
Source text: as §7, §8

[2] = Rat cortical dissociated cell culture, okadaic acid injury, MTT viability; conditions: Wistar, rat
Protocol: as §1, §2, §3, §4, §5, §6

IGF-1 receptor = IGF-1 receptor (Homo sapiens, UniProt P08069); conditions: background statement; cited from earlier work
Chain of IGF-1 receptor (P08069 31-736 limits assumed): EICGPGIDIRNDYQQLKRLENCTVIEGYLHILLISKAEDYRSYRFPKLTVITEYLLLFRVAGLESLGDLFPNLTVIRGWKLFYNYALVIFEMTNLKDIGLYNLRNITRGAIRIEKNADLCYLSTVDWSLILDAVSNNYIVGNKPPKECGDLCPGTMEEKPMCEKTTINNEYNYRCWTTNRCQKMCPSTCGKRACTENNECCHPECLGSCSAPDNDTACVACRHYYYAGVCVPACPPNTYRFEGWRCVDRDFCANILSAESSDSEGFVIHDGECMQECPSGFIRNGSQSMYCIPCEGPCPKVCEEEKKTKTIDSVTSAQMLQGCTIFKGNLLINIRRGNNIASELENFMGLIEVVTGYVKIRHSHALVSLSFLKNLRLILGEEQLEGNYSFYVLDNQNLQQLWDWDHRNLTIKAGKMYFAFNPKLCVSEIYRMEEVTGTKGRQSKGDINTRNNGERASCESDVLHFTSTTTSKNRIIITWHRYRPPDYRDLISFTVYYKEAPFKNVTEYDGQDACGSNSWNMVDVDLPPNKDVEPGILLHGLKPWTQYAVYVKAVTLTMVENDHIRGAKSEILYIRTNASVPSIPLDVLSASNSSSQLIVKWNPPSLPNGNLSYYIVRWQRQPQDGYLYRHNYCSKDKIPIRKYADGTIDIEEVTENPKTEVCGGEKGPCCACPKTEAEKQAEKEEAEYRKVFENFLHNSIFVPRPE
Chain of IGF-1 receptor (P08069 741-1367 partner limits assumed): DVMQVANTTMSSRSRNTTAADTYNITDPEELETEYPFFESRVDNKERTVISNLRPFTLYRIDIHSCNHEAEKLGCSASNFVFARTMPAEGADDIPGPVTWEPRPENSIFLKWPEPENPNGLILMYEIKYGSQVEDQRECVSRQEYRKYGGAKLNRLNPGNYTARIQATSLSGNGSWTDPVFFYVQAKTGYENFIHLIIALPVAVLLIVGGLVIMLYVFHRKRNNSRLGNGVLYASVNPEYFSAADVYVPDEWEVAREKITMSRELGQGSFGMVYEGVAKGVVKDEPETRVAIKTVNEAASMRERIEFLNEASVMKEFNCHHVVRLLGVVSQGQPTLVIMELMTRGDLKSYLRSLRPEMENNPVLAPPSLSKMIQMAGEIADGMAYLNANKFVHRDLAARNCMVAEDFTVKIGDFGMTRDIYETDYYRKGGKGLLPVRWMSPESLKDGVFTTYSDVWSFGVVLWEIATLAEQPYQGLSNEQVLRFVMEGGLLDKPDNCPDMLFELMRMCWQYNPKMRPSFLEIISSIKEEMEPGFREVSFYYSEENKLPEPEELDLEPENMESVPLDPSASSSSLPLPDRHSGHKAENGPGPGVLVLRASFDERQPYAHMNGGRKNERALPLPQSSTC

[3] = tested on: N-methyl-D-aspartate (NMDA) receptor; conditions: background statement; cited from earlier work
[4] = 24 hrs, MTT, cortical cell culture (FIG. 1)

SMILES: CCC[C@H](NC(=O)[C@@H]1CCCN1C(=O)CN)C(=O)O [analog 65, Glycyl-L-prolyl-L-Norvaline] (H-Gly-Pro-[Nva]-OH)
- protection against loss of cell viability induced by okadaic acid (cortical cell culture; at nearly every concentration tested (10 nM to 1 mM), cortical cell culture (FIG. 5)): 100%
- neuroprotection against okadaic acid induced loss of cell viability (cortical cell culture; broad range of concentrations, 10 nM to 1 mM, cortical cell culture (FIG. 5)): neuroprotective

SMILES: CC1(C)SCN(C(=O)CN)[C@@H]1C(=O)N[C@@H](CCC(=O)O)C(=O)O [analog 49, Glycyl-L-thia-5,5-dimethylprolyl-L-glutamic acid]
- neuroprotection against okadaic acid induced loss of cell viability (cortical cell culture; [4]): neuroprotective
- protection against loss of neural cell viability caused by okadaic acid (cortical cell culture; concentration range 10 nM to 10 μM, cortical cell culture (FIG. 1)): 100%

SMILES: NCC(=O)N1C[C@H](O)C[C@H]1C(=O)N[C@@H](CCC(=O)O)C(=O)O [analog 60, Glycyl-trans-4-hydroxy-L-prolyl-L-glutamic acid] (H-Gly-[Hyp]-Glu-OH)
- statistical significance of neuroprotective effect (striatal cells; at concentrations of 100 nM and 100 μM and 1 mM, 30 nM okadaic acid, striatal (FIG. 3)): statistically significant effects
- neuroprotection against okadaic acid induced loss of cell viability (striatal cells): neuroprorotective

SMILES: C=C1[C@@H](O)[C@@H]2O[C@]3(CC[C@H](/C=C/[C@@H](C)[C@@H]4CC(C)=C[C@@]5(O[C@H](C[C@@](C)(O)C(=O)O)CC[C@H]5O)O4)O3)CC[C@H]2O[C@@H]1[C@@H](O)C[C@H](C)[C@H]1O[C@@]2(CCCCO2)CC[C@H]1C [okadaic acid, reference compound]
- decrease in the number of cells having neurites (cerebellar cells): over 80%
- cytotoxicity at 24 h [1]: 10 to 50%
- cytotoxicity at 24 h [2]: ~30%

SMILES: NCC(=O)N1CCCCC1C(=O)N[C@@H](CCC(=O)O)C(=O)O (stereo partly drawn) [analog 66, Glycyl-D,L-pipecolinyl-L-glutamic Acid] (H-Gly-[ξPip]-Glu-OH)
- statistical significance of neuroprotective effect (striatal cells; at concentrations of 100 nM, 100 mM and 1 mM, okadaic acid, striatal (FIG. 6)): statistically significant effects
- neuroprotection against okadaic acid induced loss of cell viability (striatal cells): neuroprotective

SMILES: CC(C)(N)C(=O)N1CCC[C@H]1C(=O)N[C@@H](CCC(=O)O)C(=O)O [analog 64, Aminoisobutryl-L-prolyl-L-glutamic acid] (H-[Aib]-Pro-Glu-OH)
- protection from the loss of neural cell viability induced by okadaic acid (striatal cells; at 1 mM, 30 nM okadaic acid, striatal (FIG. 4)): complete protection
- neuroprotective efficacy compared with GPE (striatal cells; concentration range 100 μM to 1 mM, 30 nM okadaic acid, striatal (FIG. 4)): more effective than GPE
- neuroprotection against okadaic acid induced loss of cell viability (striatal cells): neuroprotective

SMILES: NCC(=O)N1CCC[C@H]1C(=O)N[C@@H](CCC(=O)O)C(=O)O [GPE, Glycyl-L-Prolyl-L-Glutamate]
- binding to IGF-1 receptor (IGF-1 receptor): does not bind
- neuroprotection against okadaic acid induced loss of cell viability (cortical cell culture; [4]): reversed the okadaic acid induced loss of cell viability
- binding affinity to NMDA receptor [3]: low affinity
